Data from ChEMBL document CHEMBL1201862, “PubChem BioAssay data set” (2004).
“And” between values parts separate entries of the source, which are not always exact repeats. Equal entries are not always repeated.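 Briefly, cells in 96-well plates were exposed to five compound concentrations for 48 h, and endpoints were estimated by linear interpolation. GI50 is the concentration that inhibits growth by half.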 The source made the active and inactive calls. Cut-off read from the data, not from the text of the source: active = GI50 up to about 1.1 µM and inactive = higher.

Columns and labels:
Assay in all cases: NCI tumour cell line growth inhibition, 48 h
RXF 393 = test system: RXF 393
HCT-15 = test system: HCT-15
Malme-3M = test system: Malme-3M
OVCAR-8 = test system: OVCAR-8
SNB-75 = test system: SNB-75
SR = test system: SR
SK-MEL-2 = test system: SK-MEL-2
M14 = test system: M14
HCC 2998 = test system: HCC 2998
RPMI-8226 = test system: RPMI-8226
A549 = test system: A549
SN12C = test system: SN12C
NCI-H226 = test system: NCI-H226
SF-268 = test system: SF-268
HL-60 = test system: HL-60
OVCAR-3 = test system: OVCAR-3
786-0 = test system: 786-0

| SMILES | GI50 (RXF 393) | GI50 (HCT-15) | GI50 (Malme-3M) | GI50 (OVCAR-8) | GI50 (SNB-75) | GI50 (SR) | GI50 (SK-MEL-2) | GI50 (M14) | GI50 (HCC 2998) | GI50 (RPMI-8226) | GI50 (A549) | GI50 (SN12C) | GI50 (NCI-H226) | GI50 (SF-268) | GI50 (HL-60) | GI50 (OVCAR-3) | GI50 (786-0) |
| --- | --- | --- | --- | --- | --- | --- | --- | --- | --- | --- | --- | --- | --- | --- | --- | --- | --- |
| O=[N+]([O-])c1ccc2occ3c2c1CCC3 | > 100 µM (inactive) | > 100 µM | > 100 µM (inactive) | > 100 µM (inactive) | 24.4 µM (inactive) | > 100 µM (inactive) | > 100 µM (inactive) | > 100 µM (inactive) | > 100 µM (inactive) | > 100 µM (inactive) | > 100 µM (inactive) | > 100 µM (inactive) | 40 µM (inactive) | > 100 µM (inactive) | > 100 µM (inactive) | > 100 µM (inactive) | > 100 µM (inactive) |
| O=C(Cc1nc2ccccc2s1)C(=O)Nc1ccccc1C(F)(F)F | > 100 µM (inactive) | > 100 µM | > 100 µM (inactive) | > 100 µM (inactive) | 25.1 µM (inactive) |  | > 100 µM (inactive) | > 100 µM (inactive) | > 100 µM (inactive) |  | > 100 µM (inactive) | > 100 µM (inactive) | > 100 µM (inactive) | > 100 µM (inactive) | > 100 µM (inactive) | > 100 µM (inactive) | > 100 µM (inactive) |
| O=CC1=CCCN(CCc2c[nH]c3ccccc23)C1 | 30.5 µM (inactive) | 21.7 µM | 64.7 µM (inactive) | 48.5 µM (inactive) |  | 11.8 µM (inactive) | 63.5 µM (inactive) |  | 71.6 µM (inactive) | 37.2 µM (inactive) | 186 µM (inactive) | 46.2 µM (inactive) | 46.3 µM (inactive) | 68.2 µM (inactive) | 11.2 µM (inactive) | 42.6 µM (inactive) | 62.2 µM (inactive) |
| C1CCN(c2nc(=[N+]3CCCCC3)ss2)CC1 | > 100 µM (inactive) | > 100 µM | > 100 µM (inactive) | > 100 µM (inactive) | > 100 µM (inactive) | > 100 µM (inactive) | > 100 µM (inactive) | > 100 µM (inactive) | > 100 µM (inactive) | > 100 µM (inactive) | 55.8 µM (inactive) | > 100 µM (inactive) | 19.1 µM (inactive) | 82 µM (inactive) | > 100 µM (inactive) |  | > 100 µM (inactive) |
| CCOC(=N)CC(=O)Nc1ccccc1 | > 46.5 µM (inactive) | 32.8 µM | > 46.5 µM (inactive) | > 21.5 µM (inactive) | > 46.5 µM (inactive) | > 39.9 µM (inactive) | > 31.6 µM (inactive) | > 46.5 µM (inactive) | > 31.6 µM (inactive) | 15.9 µM (inactive) | > 46.5 µM (inactive) | > 46.5 µM (inactive) | > 31.6 µM (inactive) | > 46.5 µM (inactive) | > 100 µM (inactive) | > 31.6 µM (inactive) | > 46.5 µM (inactive) |
| COc1cc(/C=C/c2cccnc2)cc(OC)c1OC | > 100 µM (inactive) | > 100 µM | > 100 µM (inactive) | > 100 µM (inactive) | 45.7 µM (inactive) |  |  | > 100 µM (inactive) |  | > 100 µM (inactive) | > 100 µM (inactive) | > 100 µM (inactive) | > 100 µM (inactive) | > 100 µM (inactive) | 98.2 µM (inactive) | > 100 µM (inactive) | > 100 µM (inactive) |
| O=c1c2ccccc2c(=O)n2n1CC=CC2 | > 100 µM (inactive) | > 100 µM | > 100 µM (inactive) | > 100 µM (inactive) | > 100 µM (inactive) |  | > 100 µM (inactive) | > 100 µM (inactive) | > 100 µM (inactive) | > 100 µM (inactive) | > 100 µM (inactive) | > 100 µM (inactive) | > 100 µM (inactive) | > 100 µM (inactive) | > 100 µM (inactive) | > 100 µM (inactive) | > 100 µM (inactive) |
| CCOc1ccc(/N=N/c2c(-c3ccccc3)nn(C(=O)CC(=O)Nc3ccccc3Cl)c2-c2ccccc2)cc1 | 34.2 µM (inactive) |  | > 100 µM (inactive) | 89.7 µM (inactive) | 21.2 µM (inactive) | 72.8 µM (inactive) | > 100 µM (inactive) | > 100 µM (inactive) | 41.5 µM (inactive) | 37.4 µM (inactive) | 67.3 µM (inactive) | > 100 µM (inactive) | 65.9 µM (inactive) | 39 µM (inactive) | 25.6 µM (inactive) | 35.8 µM (inactive) | > 100 µM (inactive) |
| Clc1cccc(C2SCc3nc4ccccc4n32)c1Cl (configuration not stated) | 15.6 µM (inactive) | 17.4 µM |  | 19 µM (inactive) | 4.51 µM (inactive) |  | 16.7 µM (inactive) | 16.6 µM (inactive) |  | 13.3 µM (inactive) | 17.9 µM (inactive) | 16.1 µM (inactive) |  | 21 µM (inactive) | 5.18 µM (inactive) | 19 µM (inactive) | 17.7 µM (inactive) |
| Nc1nc2c3nc(Nc4ccccc4)sc3nc(=O)n2c2sc(Nc3ccccc3)nc12 | > 100 µM (inactive) | > 100 µM | > 100 µM (inactive) | > 100 µM (inactive) | > 100 µM (inactive) | > 100 µM (inactive) |  | > 100 µM (inactive) | > 100 µM (inactive) | > 100 µM (inactive) | > 100 µM (inactive) | > 100 µM (inactive) | > 100 µM (inactive) | > 100 µM (inactive) | > 100 µM (inactive) |  | > 100 µM (inactive) |
| CCOC(=O)C1C(=O)C(C(=O)OCC)C(c2ccccc2)N(C)C1c1ccccc1 (configuration not stated) | > 100 µM (inactive) | 82.4 µM | > 100 µM (inactive) | > 100 µM (inactive) | > 100 µM (inactive) | > 100 µM (inactive) | > 100 µM (inactive) | > 100 µM (inactive) |  |  | > 100 µM (inactive) | > 100 µM (inactive) | > 100 µM (inactive) | > 100 µM (inactive) | 38.7 µM (inactive) | > 100 µM (inactive) | > 100 µM (inactive) |
| O=C1C(=O)N(C(=O)c2ccc(Cl)c(Cl)c2)c2ccccc21 | > 100 µM (inactive) |  |  | > 100 µM (inactive) | 58.6 µM (inactive) | > 100 µM (inactive) |  | > 100 µM (inactive) |  | > 100 µM (inactive) | > 100 µM (inactive) |  | 44.9 µM (inactive) | > 100 µM (inactive) | > 100 µM (inactive) | > 100 µM (inactive) | > 100 µM (inactive) |
| NNC(=S)N/N=C(\CC1OC(=O)c2ccccc21)c1ccccc1O (configuration not stated) | 36.4 µM (inactive) | 55.8 µM | 30.4 µM (inactive) | 30.8 µM (inactive) | 42.6 µM (inactive) | 16.3 µM (inactive) | 26.8 µM (inactive) | 61.9 µM (inactive) | 32.7 µM (inactive) |  | 64.3 µM (inactive) | 46.8 µM (inactive) | 33.6 µM (inactive) | 50 µM (inactive) | 24.4 µM (inactive) | 37.5 µM (inactive) | 43.3 µM (inactive) |
| CCCCC(/C=N/NC(=N)N)CC.Cc1cc(O)c(C(C)C)cc1S(=O)(=O)O | 24.9 µM (inactive) | 85.7 µM | 43.9 µM (inactive) | > 100 µM (inactive) | 54 µM (inactive) | 21.9 µM (inactive) |  | 36.2 µM (inactive) | 17.5 µM (inactive) | 38.8 µM (inactive) | 65.8 µM (inactive) | 97.5 µM (inactive) | 18.2 µM (inactive) | > 100 µM (inactive) | 8.85 µM (inactive) | 37.2 µM (inactive) | > 100 µM (inactive) |
| CC(C)(C)CC(C)(C)c1cc2c(O)c(c1)Cc1cc(C(C)(C)CC(C)(C)C)cc(c1O)Cc1cc(C(C)(C)CC(C)(C)C)cc(c1O)Cc1cc(C(C)(C)CC(C)(C)C)cc(c1O)C2 | > 100 µM (inactive) | > 100 µM | > 100 µM (inactive) | > 100 µM (inactive) | > 100 µM (inactive) |  | > 100 µM (inactive) | > 100 µM (inactive) | > 100 µM (inactive) | > 100 µM (inactive) | > 100 µM (inactive) | > 100 µM (inactive) |  | > 100 µM (inactive) | > 100 µM (inactive) | > 100 µM (inactive) | > 100 µM (inactive) |
| CC(NC(=O)c1ccccc1)C(=O)N(Cc1ccccc1)Cc1ccccc1 (configuration not stated) | 26.5 µM (inactive) | 32.1 µM | 24.5 µM (inactive) |  | > 100 µM (inactive) | 29.9 µM (inactive) | 20.7 µM (inactive) | 21 µM (inactive) | 35.6 µM (inactive) | 21 µM (inactive) | 30.2 µM (inactive) | 37.4 µM (inactive) | 23.4 µM (inactive) | 35.4 µM (inactive) |  |  | 37.6 µM (inactive) |
| CCCCCCC(C)CCCCCCCCCCC(=O)O (configuration not stated) | > 100 µM (inactive) |  | > 100 µM (inactive) | > 100 µM (inactive) | > 100 µM (inactive) | > 100 µM (inactive) | > 100 µM (inactive) | > 100 µM (inactive) |  | > 100 µM (inactive) | > 100 µM (inactive) | > 100 µM (inactive) | > 100 µM (inactive) | > 100 µM (inactive) | > 100 µM (inactive) | > 100 µM (inactive) | > 100 µM (inactive) |
| COC(=O)[C@@H]1[C@H](O)[C@H](C)[C@H](O)[C@@](C)(O)/C=C\C=C(\C)C(=O)Nc2c(C)c(OC(C)=O)c3c(c2O)C(=O)C(C)=C2OCOC(=C23)/C(C)=C/[C@@](C)(O)[C@H](O)[C@@H](C)[C@H]1OC(C)=O | 62.7 µM (inactive) | 26.9 µM | 31.3 µM (inactive) | 31.8 µM (inactive) | > 66.8 µM (inactive) |  | 37.2 µM (inactive) |  | 21.8 µM (inactive) | 31.8 µM (inactive) | 43.3 µM (inactive) | 43.6 µM (inactive) | > 100 µM (inactive) and 94.2 µM (inactive) | 4.76 µM (inactive) | 20.5 µM (inactive) | 43.1 µM (inactive) and 32 µM (inactive) | > 100 µM (inactive) and 69.5 µM (inactive) |
